{"source": "patent EP4201929A1", "about": "“QUINOXALINE THIOREDOXIN REDUCTASE INHIBITORS” (geneXplain GmbH, priority 2021, dated 2023)", "key": {"TrxRl": {"target": "T1, TrxRl (Homo sapiens, UniProt Q16881)", "T1 construct": "endogenous in cells; host or cells: MCF7 (A37, A39); HCT116 (A39)", "T1 sequence (Q16881 151-649)": "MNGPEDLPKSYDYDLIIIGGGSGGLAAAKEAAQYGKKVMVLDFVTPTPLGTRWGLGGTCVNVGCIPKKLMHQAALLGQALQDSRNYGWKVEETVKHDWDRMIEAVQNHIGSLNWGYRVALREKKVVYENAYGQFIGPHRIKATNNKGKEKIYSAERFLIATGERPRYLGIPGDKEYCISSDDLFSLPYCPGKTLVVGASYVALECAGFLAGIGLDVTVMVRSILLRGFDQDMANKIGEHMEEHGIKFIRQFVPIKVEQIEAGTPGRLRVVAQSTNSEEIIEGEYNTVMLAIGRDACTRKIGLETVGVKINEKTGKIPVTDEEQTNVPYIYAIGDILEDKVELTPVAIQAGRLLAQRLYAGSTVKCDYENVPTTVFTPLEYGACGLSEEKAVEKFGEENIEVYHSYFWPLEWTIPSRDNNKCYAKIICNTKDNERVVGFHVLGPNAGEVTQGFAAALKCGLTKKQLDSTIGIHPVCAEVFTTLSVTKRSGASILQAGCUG", "assay": "TrxR1 enzymatic activity measurement in cellulo (TXN-dependent insulin reduction assay)", "type": "cell-based", "conditions": "MCF7 breast cancer cells, 5 or 10 µM, 2h after treatment, depending on concentration", "method": "MCF7 cells were treated with 5 or 10 µM 1d*HCl or DMSO as a control. Cells were collected 2 h and 6 h after treatment, washed twice with PBS, and lysed in 100 µL of lysis buffer (50 mM Tris-HCl, 2mM EDTA, 0.15 M NaCl, 1% Triton X-100, protease inhibitors (Roche), pH 7.5). Cells were scraped, collected and snap frozen. After three freeze-thawing cycles the lysate was spinned down, supernatant collected and protein concentration measured using Pierce bicinchoninic acid assay kit (BCA, from Thermofisher Scientific) according to the manufacturer's protocol. To measure TrxR activity, the end-point TXN-dependent insulin reduction assay was used, essentially as described previously (WC Stafford, et al, Irreversible inhibition of cytosolic thioredoxin reductase 1 as a mechanistic basis for anti-cancer therapy, Sci Transl Med (2018), Feb 14;10(428):eaaf7444. doi: 10.1126/scitranslmed.aaf7444). […] After 0, 15 and 30 min, 10 µL aliquots were taken and combined with 6 M guanidine-HCl and 2.5 mM DTNB in 96-well plates (PerkinElmer), whereupon the absorbance at 412 nm was measured using microplate spectrophotometer (TECAN). Levels of active TrxR were normalised to DMSO control samples from each treatment timepoint.\nHaving established that 1d*HCl inhibits TrxR1activity in vitro, it was important to confirm that 1d*HCl targets TrxRl in living cells. […]"}, "cancer cells": {"tested_on": "cancer cells", "assay": "Cell growth assay in combination with BSO", "type": "cell-based", "method": "Further, we tested whether the inhibition of GR by BSO will have additive effect with 1d*HCl. If 1d*HCl mechanism of action includes inhibition of GR, BSO will not have an additive effect. We used a range of concentrations of 1d*HCl and BSO in cell growth assays.\nNext, we tested whether the prevention of oxidative stress by NAC will affect the growth suppression by the combination of 1d*HCl and BSO. In the presence of NAC we observed the additive effect of 1d*HCl with 50 µM BSO only at twice higher dose of 1d*HCl - 10 µM."}, "[1]": {"tested_on": "reactive oxygen species (ROS)", "assay": "Oxidative stress measurement (DCFH-DA-based assay)", "type": "cell-based", "method": "Cells were treated with compounds and incubated 30 min with 10 µM DCF-DA in serum free medium. Afterward, cells were trypsinized, washed with PBS and fluorescence was analyzed by a FACSCalibur flow cytometer (BD Biosciences) using FL1-H channel.\nTo get insight into the mechanism of the anti-tumor activity of 1d*HCl, we tested the level of oxidative stress upon treatment. We measured the induction of reactive oxygen species (ROS), using 2'-7'-Dichlorodihydrofluorescein diacetate (DCFH-DA)-based assay. […] After 8h of treatment, the induction of reactive oxygen species (ROS) was much higher."}, "[2]": {"target": "T2, recombinant purified TrxRl (Homo sapiens, UniProt Q16881)", "T2 construct": "made in house; host or cells: Release Factor 1-depleted E. coli strain", "T2 sequence (Q16881 151-649)": "as above", "assay": "TrxR1 enzymatic activity measurement in vitro", "type": "biochemical", "conditions": "recombinant purified enzyme in vitro", "method": "TrxRl enzyme was recombinantly produced with high Sec contents in a specific Release Factor 1-depleted E. coli strain and purified as previously described (Arnér ESJ, Holmgren A, in Current Protocols in Toxicology, Maines M, Costa L, Reed D, Sassa S, Eds. (John Wiley & Sons, Inc., New York, 2000), pp. 7.4.1-7.4.14). TrxRl and GSR (Sigma) recombinant enzyme assays were performed in a reaction buffer containing 50 mM Tris pH 7.5 with 2 mM EDTA and 0.1 mg/mL bovine serum albumin as described previously (Arnér ESJ, Holmgren A, in Current Protocols in Toxicology, Maines M, Costa L, Reed D, Sassa S, Eds. (John Wiley & Sons, Inc., New York, 2000), pp. 7.4.1-7.4.14). Briefly, assays were performed in triplicate using 96-well plates, with activity inferred from absorbance changes using a Spectra Max plate reader. Results of recombinant enzyme assays were normalized to DMSO and to no enzyme controls.\nWe used recombinant purified TrxRl and GR in an in vitro assay as described in methods section."}}}
{"smiles": "Cl.N#Cc1c(-c2cccnc2)[n+]([O-])c2cc(F)c(N3CCOCC3)cc2[n+]1[O-]", "note": "[1d*HCl, 6-Fluoro-7-(morpholin-4-yl)-3-(pyridin-3-yl)quinoxaline-2-carbonitrile-1,4-dioxide hydrochloride]", "values": [{"measurement": "inhibition of TrxRl activity in cells", "setting": "TrxRl", "value": "70-80%"}, {"measurement": "effect of combination with BSO on cell growth", "setting": "cancer cells; 5 µM 1d*HCl with 50 µM BSO", "value": "have an additive effect and completely eradicated cancer cells"}, {"measurement": "dose of 1d*HCl at which additive effect with 50 µM BSO is observed", "setting": "cancer cells; in the presence of NAC", "value": 10, "unit": "µM"}, {"measurement": "DCF fluorescence (induction of reactive oxygen species)", "setting": "[1]; 2h after treatment", "value": "significant increase in DCF fluorescence"}, {"measurement": "induction of reactive oxygen species (ROS)", "setting": "[1]; after 8h of treatment", "value": "much higher"}, {"measurement": "enzymatic activity of TrxRl", "setting": "[2]", "value": "efficiently inhibited the enzymatic activity of TrxRl in a dose- and time-dependent manner"}]}
